Source: article PMC12394658, “Discovery of Zharp1-163 as a dual inhibitor of ferroptosis and necroptosis for the treatment of inflammatory disorders and kidney injury” (Cell Death Discovery, 2025)

Columns and labels:
Experiment in all cases: biochemical
Parameters in all cases: Kinase selectivity panel of 81 human kinases, ADP-Glo or HTRF, per cent inhibition at 1 uM
AKT1 = AKT1 (Homo sapiens, UniProt P31749)
Procedure, shortened: (§1)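 Kinase-panel selectivity profiling of 81 kinases with compound at 1000 nM.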

ALK4 = target: T1, ALK4 (Homo sapiens, UniProt P36896)
T1 construct: gene ACVR1B
Procedure, shortened: as §1

CHK1 = target: T2, CHK1 (Homo sapiens, UniProt O14757)
T2 construct: gene CHEK1
Procedure, shortened: as §1

DAPK1 = DAPK1 (Homo sapiens, UniProt P53355)
Procedure, shortened: as §1

Erk2 = target: T3, Erk2 (Homo sapiens, UniProt P28482)
T3 construct: gene MAPK1
Procedure, shortened: as §1

GSK3β = target: T4, GSK3β (Homo sapiens, UniProt P49841)
T4 construct: gene GSK3B
Procedure, shortened: as §1

KDR = KDR (Homo sapiens, UniProt P35968)
Procedure, shortened: as §1

MLK1 = target: T5, MLK1 (Homo sapiens, UniProt P80192)
T5 construct: gene MAP3K9
Procedure, shortened: as §1

PDGFRα = target: T6, PDGFRα (Homo sapiens, UniProt P16234)
T6 construct: gene PDGFRA
Procedure, shortened: as §1

PIK3CA = PIK3CA (Homo sapiens, UniProt P42336)
Procedure, shortened: as §1

SRC = SRC (Homo sapiens, UniProt P12931)
Procedure, shortened: as §1

TGFβR1 = target: T7, TGFβR1 (Homo sapiens, UniProt P36897)
T7 construct: gene TGFBR1
Procedure, shortened: as §1

TIE2 = target: T8, TIE2 (Homo sapiens, UniProt Q02763)
T8 construct: gene TEK
Procedure, shortened: as §1

WEE1 = WEE1 (Homo sapiens, UniProt P30291)
Procedure, shortened: as §1

T1 sequence (P36896 whole entry): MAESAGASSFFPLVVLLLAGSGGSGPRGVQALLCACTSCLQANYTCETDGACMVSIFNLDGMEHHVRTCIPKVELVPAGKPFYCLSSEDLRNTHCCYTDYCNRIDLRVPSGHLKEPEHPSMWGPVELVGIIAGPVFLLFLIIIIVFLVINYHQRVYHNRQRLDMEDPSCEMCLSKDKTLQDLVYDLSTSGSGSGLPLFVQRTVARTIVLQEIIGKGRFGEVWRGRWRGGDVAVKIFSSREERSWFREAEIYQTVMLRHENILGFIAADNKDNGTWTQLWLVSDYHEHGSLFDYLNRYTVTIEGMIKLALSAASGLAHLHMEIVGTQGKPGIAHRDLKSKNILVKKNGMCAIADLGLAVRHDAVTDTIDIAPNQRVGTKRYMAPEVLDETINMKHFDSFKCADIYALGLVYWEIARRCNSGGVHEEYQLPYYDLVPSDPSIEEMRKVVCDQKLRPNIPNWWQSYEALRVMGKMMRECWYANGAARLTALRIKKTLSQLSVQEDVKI
T5 sequence (P80192 whole entry): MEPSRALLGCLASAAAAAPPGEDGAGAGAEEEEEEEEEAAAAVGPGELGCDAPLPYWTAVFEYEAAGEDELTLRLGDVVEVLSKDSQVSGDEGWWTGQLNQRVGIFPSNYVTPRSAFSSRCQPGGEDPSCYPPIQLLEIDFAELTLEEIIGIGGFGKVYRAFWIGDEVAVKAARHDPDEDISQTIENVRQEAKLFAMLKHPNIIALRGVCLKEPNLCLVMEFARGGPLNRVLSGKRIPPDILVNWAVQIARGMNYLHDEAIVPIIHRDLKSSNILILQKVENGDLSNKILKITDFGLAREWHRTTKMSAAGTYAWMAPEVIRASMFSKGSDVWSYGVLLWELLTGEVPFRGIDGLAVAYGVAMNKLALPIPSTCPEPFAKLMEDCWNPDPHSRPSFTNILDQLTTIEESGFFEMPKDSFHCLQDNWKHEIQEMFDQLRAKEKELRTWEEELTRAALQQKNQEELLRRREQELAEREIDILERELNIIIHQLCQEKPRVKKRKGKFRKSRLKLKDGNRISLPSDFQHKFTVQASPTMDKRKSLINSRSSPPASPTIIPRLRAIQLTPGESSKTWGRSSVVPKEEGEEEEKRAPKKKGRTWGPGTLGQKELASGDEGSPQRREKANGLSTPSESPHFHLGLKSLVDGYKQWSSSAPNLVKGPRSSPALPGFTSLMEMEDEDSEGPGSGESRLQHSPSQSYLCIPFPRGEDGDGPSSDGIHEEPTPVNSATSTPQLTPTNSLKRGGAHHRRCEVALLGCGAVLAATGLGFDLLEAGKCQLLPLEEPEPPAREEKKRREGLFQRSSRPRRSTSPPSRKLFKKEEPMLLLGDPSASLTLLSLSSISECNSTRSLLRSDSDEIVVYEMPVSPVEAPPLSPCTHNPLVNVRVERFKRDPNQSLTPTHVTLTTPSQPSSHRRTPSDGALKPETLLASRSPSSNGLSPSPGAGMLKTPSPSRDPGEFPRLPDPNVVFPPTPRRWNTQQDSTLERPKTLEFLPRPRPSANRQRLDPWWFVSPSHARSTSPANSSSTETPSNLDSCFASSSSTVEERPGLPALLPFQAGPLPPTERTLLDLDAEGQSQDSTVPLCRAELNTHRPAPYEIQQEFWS
Sequence of DAPK1 (P53355 whole entry): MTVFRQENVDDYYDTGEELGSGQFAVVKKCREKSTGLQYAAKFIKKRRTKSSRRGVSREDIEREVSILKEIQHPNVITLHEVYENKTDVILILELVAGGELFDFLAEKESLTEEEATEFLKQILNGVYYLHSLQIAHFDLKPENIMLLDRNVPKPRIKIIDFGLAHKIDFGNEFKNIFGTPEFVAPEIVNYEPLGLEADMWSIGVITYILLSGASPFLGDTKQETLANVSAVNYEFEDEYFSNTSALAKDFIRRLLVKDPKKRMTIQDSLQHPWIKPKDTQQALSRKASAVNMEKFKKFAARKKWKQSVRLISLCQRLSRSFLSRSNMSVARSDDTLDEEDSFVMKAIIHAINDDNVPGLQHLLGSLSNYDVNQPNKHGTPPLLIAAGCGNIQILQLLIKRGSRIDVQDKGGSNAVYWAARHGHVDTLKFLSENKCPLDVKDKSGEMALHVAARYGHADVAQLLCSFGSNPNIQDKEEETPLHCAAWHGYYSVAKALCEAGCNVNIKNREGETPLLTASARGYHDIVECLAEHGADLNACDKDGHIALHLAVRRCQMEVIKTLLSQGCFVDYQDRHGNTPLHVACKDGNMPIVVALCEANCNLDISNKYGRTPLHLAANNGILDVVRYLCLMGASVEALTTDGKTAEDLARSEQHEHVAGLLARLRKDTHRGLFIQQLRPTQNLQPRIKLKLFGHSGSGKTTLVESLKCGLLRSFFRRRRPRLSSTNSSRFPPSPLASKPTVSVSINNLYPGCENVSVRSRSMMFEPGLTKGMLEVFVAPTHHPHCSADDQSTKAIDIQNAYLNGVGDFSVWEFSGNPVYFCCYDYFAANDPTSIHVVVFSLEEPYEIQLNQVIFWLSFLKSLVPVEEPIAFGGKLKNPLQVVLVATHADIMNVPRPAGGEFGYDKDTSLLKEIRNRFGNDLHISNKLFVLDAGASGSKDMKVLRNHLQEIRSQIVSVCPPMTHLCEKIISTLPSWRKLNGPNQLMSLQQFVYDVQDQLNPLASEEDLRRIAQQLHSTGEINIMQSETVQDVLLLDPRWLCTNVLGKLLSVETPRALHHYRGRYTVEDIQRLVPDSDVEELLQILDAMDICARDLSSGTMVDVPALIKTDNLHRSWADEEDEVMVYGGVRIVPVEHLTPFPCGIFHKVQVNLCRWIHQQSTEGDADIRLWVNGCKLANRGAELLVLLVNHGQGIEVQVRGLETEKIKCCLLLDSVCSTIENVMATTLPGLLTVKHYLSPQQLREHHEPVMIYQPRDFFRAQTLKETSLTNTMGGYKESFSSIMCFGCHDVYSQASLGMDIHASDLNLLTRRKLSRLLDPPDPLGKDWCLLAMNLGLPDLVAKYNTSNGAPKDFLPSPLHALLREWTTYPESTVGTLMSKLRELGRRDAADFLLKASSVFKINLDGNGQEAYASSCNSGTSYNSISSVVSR
Sequence of KDR (P35968 whole entry): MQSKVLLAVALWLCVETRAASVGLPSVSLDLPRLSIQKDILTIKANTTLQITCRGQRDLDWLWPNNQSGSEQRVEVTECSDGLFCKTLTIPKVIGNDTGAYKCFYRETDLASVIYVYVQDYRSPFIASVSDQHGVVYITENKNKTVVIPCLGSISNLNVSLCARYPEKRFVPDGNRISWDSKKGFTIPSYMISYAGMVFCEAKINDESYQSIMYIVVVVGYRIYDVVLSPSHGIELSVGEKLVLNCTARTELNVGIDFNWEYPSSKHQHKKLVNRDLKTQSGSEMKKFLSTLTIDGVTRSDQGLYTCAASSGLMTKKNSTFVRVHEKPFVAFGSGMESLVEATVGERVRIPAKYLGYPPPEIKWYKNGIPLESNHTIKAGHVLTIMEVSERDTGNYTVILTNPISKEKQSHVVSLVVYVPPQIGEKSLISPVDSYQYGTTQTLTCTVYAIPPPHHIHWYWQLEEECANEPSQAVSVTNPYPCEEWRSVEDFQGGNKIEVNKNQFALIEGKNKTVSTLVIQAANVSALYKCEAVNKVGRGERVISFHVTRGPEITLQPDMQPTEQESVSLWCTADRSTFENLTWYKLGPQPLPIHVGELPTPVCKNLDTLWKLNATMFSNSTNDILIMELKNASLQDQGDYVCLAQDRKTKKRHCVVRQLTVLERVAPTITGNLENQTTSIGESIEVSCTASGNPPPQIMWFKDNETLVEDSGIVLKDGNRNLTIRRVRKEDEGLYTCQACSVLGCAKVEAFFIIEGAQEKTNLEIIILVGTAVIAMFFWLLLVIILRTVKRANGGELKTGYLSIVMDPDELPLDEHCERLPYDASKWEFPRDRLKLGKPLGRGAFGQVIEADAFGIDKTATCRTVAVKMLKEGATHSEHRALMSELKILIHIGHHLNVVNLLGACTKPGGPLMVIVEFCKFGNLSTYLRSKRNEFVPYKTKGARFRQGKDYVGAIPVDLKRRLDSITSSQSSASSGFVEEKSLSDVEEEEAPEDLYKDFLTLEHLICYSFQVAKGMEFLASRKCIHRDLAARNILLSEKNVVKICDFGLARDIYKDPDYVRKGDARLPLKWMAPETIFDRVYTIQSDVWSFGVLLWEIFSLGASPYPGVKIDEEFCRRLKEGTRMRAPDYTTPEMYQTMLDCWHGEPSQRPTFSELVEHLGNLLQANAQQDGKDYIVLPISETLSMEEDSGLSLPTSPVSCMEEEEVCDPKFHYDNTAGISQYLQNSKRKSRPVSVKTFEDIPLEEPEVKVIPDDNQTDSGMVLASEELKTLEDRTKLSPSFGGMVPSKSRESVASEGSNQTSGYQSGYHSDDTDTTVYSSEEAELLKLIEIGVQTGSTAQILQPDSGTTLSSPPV
T2 sequence (O14757 whole entry): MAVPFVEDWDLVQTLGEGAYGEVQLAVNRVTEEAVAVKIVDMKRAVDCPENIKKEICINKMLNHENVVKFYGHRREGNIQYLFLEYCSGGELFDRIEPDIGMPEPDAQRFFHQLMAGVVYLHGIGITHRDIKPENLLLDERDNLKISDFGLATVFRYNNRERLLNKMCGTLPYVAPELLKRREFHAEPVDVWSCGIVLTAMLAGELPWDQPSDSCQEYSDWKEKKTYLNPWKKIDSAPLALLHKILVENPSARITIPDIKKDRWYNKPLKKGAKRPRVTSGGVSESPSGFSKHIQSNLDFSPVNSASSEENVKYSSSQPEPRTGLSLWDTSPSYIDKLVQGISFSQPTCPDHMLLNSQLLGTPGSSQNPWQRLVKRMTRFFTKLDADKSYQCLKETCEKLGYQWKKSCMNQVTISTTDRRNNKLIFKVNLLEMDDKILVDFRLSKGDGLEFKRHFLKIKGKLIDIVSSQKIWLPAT

**Q.** Which results are given for `Nc1cn2cc(-c3cnc4c(c3)N(C(=O)OC3CCCCC3)CCO4)ccc2n1` [Zharp1-163]?
**A.** inhibition at 1 µM (AKT1; replicate Data1): -1.95%; inhibition at 1 µM (AKT1; replicate Data2): 6.27%; inhibition at 1 µM (ALK4; replicate Data1): -1.47%; inhibition at 1 µM (ALK4; replicate Data2): -2.74%; inhibition at 1 µM (CHK1; replicate Data1): 16.8%; inhibition at 1 µM (CHK1; replicate Data2): 10.4%; inhibition at 1 µM (DAPK1; replicate Data1): 9.17%; inhibition at 1 µM (DAPK1; replicate Data2): -5.62%; inhibition at 1 µM (Erk2; replicate Data1): 17.9%; inhibition at 1 µM (Erk2; replicate Data2): 10.3%; inhibition at 1 µM (GSK3β; replicate Data1): 11.8%; inhibition at 1 µM (GSK3β; replicate Data2): -2.82%; inhibition at 1 µM (KDR; replicate Data1): -2.59%; inhibition at 1 µM (KDR; replicate Data2): -4.74%; inhibition at 1 µM (MLK1; replicate Data1): 21.2%; inhibition at 1 µM (MLK1; replicate Data2): 32.7%; inhibition at 1 µM (PDGFRα; replicate Data1): -2.74%; inhibition at 1 µM (PDGFRα; replicate Data2): 4.62%; inhibition at 1 µM (PIK3CA; replicate Data1): 37.1%; inhibition at 1 µM (PIK3CA; replicate Data2): 35.8%; inhibition at 1 µM (SRC; replicate Data1): -5.44%; inhibition at 1 µM (SRC; replicate Data2): -0.43%; inhibition at 1 µM (TGFβR1; replicate Data1): 7.16%; inhibition at 1 µM (TGFβR1; replicate Data2): 7.76%; inhibition at 1 µM (TIE2; replicate Data1): 11.9%; inhibition at 1 µM (TIE2; replicate Data2): 26.5%; inhibition at 1 µM (WEE1; replicate Data1): 9.26%; inhibition at 1 µM (WEE1; replicate Data2): 4.33%
